Source: the NIST ThermoML archive (doi:10.1021/je200279q)
Numbers after ± are expanded uncertainties.

How the values were obtained:
[1] = refractive index (Na D-line) (dimensionless); conditions: 298.15 K; 101.33 kPa; Liquid; Standard Abbe refractometry
[2] = 298.15 K; 101.33 kPa; Liquid; Pycnometric method

SMILES	refractive index [1]	mass density [2] [kg/m3]
CCCCO [butan-1-ol]	1.3973 ± 0.0007	805.8 ± 0.7
CCCO [propan-1-ol]	1.3833 ± 0.0007	799.5 ± 0.7
CC(C)CC(C)(C)C [2,2,4-trimethylpentane]	1.3892 ± 0.0008	687.5 ± 0.7
